# Measured values reported in US20230053493A1, “ONE STEP METHODS, KITS, AND SYSTEMS FOR THE MEASUREMENT OF CONCENTRATIONS OF UNBOUND BILIRUBIN IN BIOLOGICAL FLUIDS” (priority 2019, published 2023).
# Counter-ions that a name gives are not always drawn.
# B1: Mut:SEQ ID NO:1 B-73C: non-responder rat FABP mutein 20R 27A 29R 72A 73C 74F 100R 126W 131D-C2XH11 labeled with LICOR 800CW-maleimide (protein)
# chain: AFDGTWKVDRNENYEKFMERMGINVVARRLGAHDNLKLTITQEGNKFTVKESSNFRNIDVVFELGVDFAYSACFGTELTGTWTMEGNKLVGKFKRVDNGRELIAVREISGNELIQTYTYEGVEAKWIFKKDRGAASHHHHHHSHRATPNTSPHHHHHHH
# modifications: LICOR 800CW-maleimide label; nonresponder mutated probe
# notes: non-responder rat FABP mutein 20R 27A 29R 72A 73C 74F 100R 126W 131D-C2XH11 labeled with LICOR 800CW-maleimide
# B2: 27C-C2XH11-700DXM: rIFABP mutein MGI-KR14-14R 18L 27C 38V 60R 73F 106L 115R 117D 131D-C2XH11 labeled with LICOR 700DX-maleimide (protein)
# chain: MGIAFDGTWRVDRNENRERFLERMGINVVCRRLGAHDNLRVTITQEGNRFTVRESSNFRNIDRVFELGVDFAYSLFDGTELTGTWTMEGNRLVGRFRRVDNGRELIAVLEISGNELIRTDTYEGVEARRIFRRDRGAASHHHHHHSHRATPNTSPHHHHHHH
# modifications: C2XH11 tag; LICOR 700DX-maleimide label; mutated bf sensitive probe
# notes: rIFABP mutein MGI-KR14-14R 18L 27C 38V 60R 73F 106L 115R 117D 131D-C2XH11 labeled with LICOR 700DX-maleimide
# Assays:
# Albumin [1] = biological target: T1, Albumin (Homo sapiens, UniProt P02768); experiment: Drug displacement of bilirubin from albumin / interference, Bf measured with one-step cartridges; type: in vitro ADME; conditions: percent increase of Bf for the 3x drug concentration relative to no drug; negative value = interference with the Bf sensor
# From the text: Premature infants who are at high risk for bilirubin neurotoxicity are of particular concern because NICU infants frequently receive medications. [Hsieh et al. Medication use in the neonatal intensive care unit. Am J Perinatol.
# Albumin [2] = biological target: T1, Albumin; conditions: cefazolin 3.76 mM
# adult human albumin = adult human albumin (Homo sapiens, UniProt P02768); conditions: high affinity site; read-out: equilibrium dissociation constant (Kd) of bilirubin for adult human albumin; cited from earlier work
# [3] = Interference of conjugated bilirubin (ditaurobilirubin) with Bf measurement, UBCheck vs Arrows UA-2; set-up: species or system human
# Procedure: The potential interference of conjugated bilirubin with the bilirubin probes is determined by measuring the effect of ditaurobilirubin on the ability of the UBCheck to measure Bf accurately. We also compared the UBCheck results with measurements using the Arrows UB analyzer UA-2 method. The measurements are performed by spiking neonatal serum with unconjugated bilirubin to yield a Bf of approximately 10 nM and then titrating the spiked sample with ditaurobilirubin up to 20 mg/dl (FIG. 7). At each step Bf is measured by UBCheck and Arrows and the direct (conjugated) bilirubin concentration is determined using a Sigma direct bilirubin kit. At zero ditaurobilirubin both UBCheck and Arrows yield Bf of 10 nM but the direct bilirubin measurement yields a non-zero value of about 0.5 mg/dl (FIG. 7). With increasing concentrations of ditaurobilirubin UBCheck is unchanged but Arrows increases starting at about 0.5 mg/dl of ditaurobilirubin and then increases rapidly until 4 mg/dl ditaurobilirubin where the Arrow's assay saturates at Bf ≥50 nM. In contrast, the UBCheck only begins to increase at 4 mg/dl ditaurobilirubin where its Bf increase to about 12 nM, a 20% increase from the initial 10 nM level, and only at 20 mg/dl ditaurobilirubin does Bf increase to 33 nM.
# [4] = Effect of hemoglobin/hemolysate on UBCheck Bf measurement; set-up: species or system human; conditions: bilirubin spiked neonatal serum; hemoglobin concentrations at least as high as 4 g/l; cartridges with Hb blocking peptide
# Procedure: After the Bf responder and non-responder probes are applied to the Ni-polystyrene beads, the peptide of Table 4 is added to the beads and is attached through double HIS tags to the bead's Ni-NTAs. The combined probes plus peptide beads are then spotted onto cartridges. The effect of whole blood hemolysate was tested by titrating bilirubin spiked neonatal serum with increasing hemoglobin concentrations.
# [5] = Stability of non-responder probe 700/819 nm emission ratio in storage; type: physicochemical; conditions: at 1 and 6 days; absence of 700DX-maleimide
# From the text: All responder probes labeled with LICOR 700DX-maleimide and non-responder probes labeled with LICOR 800CW-maleimide probes in Tables 1 and 2, respectively have qualitatively similar dependencies on Bf. The probes differ mostly in protein expression, binding parameters (Kd, Ro and Rm) and stability. […] Although the non-responders are not characterized by bilirubin binding parameters, the emission spectrum of the 800CW-maleimide is sensitive to specific substitutions that can alter the LICOR 700DX-maleimide intensities. […] In some of these mutants the ratio of 700 to 819 nm increased from about 1% to 20% while in storage at 4° C. With suitable mutations this instability was eliminated.
# [6] = Fluorescence intensities of Bf sensor with increasing total bilirubin (FIG. 1); type: binding; conditions: increasing BT; 675 nm excitation; probe 10 nM, free in aqueous buffer
# Procedure: FIG. 1 depicts the intensities and ratios of intensities for a Bf sensor composed of the bilirubin responsive LICOR 700DX maleimide Mut:SEQ ID NO:2-76C probe (Table 1) and the bilirubin non-responder LICOR 800CW maleimide Mut:SEQ ID NO:1 B-73C probe (Table 2), both free in aqueous buffer, with increasing BT (total bilirubin) which at the concentrations used is primarily unbound bilirubin (Bf). Measurements of the 710 and 805 nm intensities at 675 nm excitation were performed at the probe concentrations of 1.5 nM and 10 nM, respectively in a Horiba Fluorolog 2.
# [7] = Calibration of free NIR probe/sensor by bilirubin titration (cuvette fluorometry, fit with equation 1); type: binding
# From the text: Embodiments provided herein are directed to methods of calibrating the bilirubin probes by mixing in an aqueous media the sensor with samples of bilirubin of increasing total bilirubin concentrations (BT), measuring the ratio of fluorescence intensities R of the sensor at each concentration, and determining the calibration parameters (Kd, Rm, and Ro) from the measured fluorescence by fitting with the equation (1), wherein R is the measured fluorescence ratio (Iλ1/Iλ2), where hi is the fluorescence intensity from the first fluorophore at wavelength λ1 and Iλ2 is the fluorescence intensity from the second fluorophore at wavelength λ2, both λ1 and λ2 have background subtracted, and Ro is the ratio in the absence of bilirubin. BT is the total bilirubin concentration and PT is the concentration of the sensor, r is the Iλ2/Iλ1 ratio of the bilirubin sensitive probe's fluorescence in the absence of the second fluorophore, Kd is the equilibrium dissociation constant of the sensor and Rm is the ratio R extrapolated to infinite BT. Equation (1) is used in some embodiments rather than equation (5) of U.S. Pat. No. 9,529,003 when Rm is >0.
# Also described are methods for calibrating and using a bilirubin sensor described herein so that Bf concentrations can be determined in approximately 5 μl of undiluted blood samples in a single step. These small volume blood samples are applied to the disposable plastic microfluidic cartridges containing the dried bilirubin ratio sensor. The bilirubin sensor containing cartridges are preferably used for a single measurement and the calibration parameters (Kd, Rm, Ro) must be determined within a “lot” of identically manufactured cartridges. The calibration is performed by titrating a sufficient number of cartridges with aqueous samples of increasing well-defined Bf levels. Because plastics bind unbound bilirubin and because surface to volume ratio in the microfluidics channel is large, the calibration Bf samples must be highly buffered by complexes with albumin. The Bf concentrations of each complex are determined by measuring each by cuvette fluorometry using a calibrated sensor free in aqueous solutions. The free sensor is calibrated by titration with aqueous solutions of bilirubin where the concentrations of these unbound bilirubin solutions are determined by absorbance. The free probe's response (R values versus Bf concentrations) are used to determine the free sensor's calibration (Kd, Rm, Ro) (equation 1). The calibrated free sensor mixed with samples of each of the BR:HSA complexes is used to determine the Bf concentrations of each complexes by cuvette fluorometry using equation 2. These calibrated complexes are used to determine the binding parameters of the disposable cartridges including the equilibrium dissociation constant (Kd), the minimum fluorescence ratio (Rm) and the initial ratio (Ro) under defined conditions, of temperature, pH, and solution composition, suitable for blood samples. Binding isotherms are performed in aqueous buffer by measuring the change in fluorescence of the bilirubin sensor in response to increasing bilirubin concentrations (“titration data”). The set of fluorescence responses at each bilirubin concentration are fitted with an appropriate equation (“calibration equation (3)”) that correctly describes the fluorescence response as a function of the Bf concentration, the, specific spectroscopic characteristics, and the Kd.
# All responder probes labeled with LICOR 700DX-maleimide and non-responder probes labeled with LICOR 800CW-maleimide probes in Tables 1 and 2, respectively have qualitatively similar dependencies on Bf. The probes differ mostly in protein expression, binding parameters (Kd, Ro and Rm) and stability. […] Although the non-responders are not characterized by bilirubin binding parameters, the emission spectrum of the 800CW-maleimide is sensitive to specific substitutions that can alter the LICOR 700DX-maleimide intensities. […]
# T1 sequence (P02768 25-609): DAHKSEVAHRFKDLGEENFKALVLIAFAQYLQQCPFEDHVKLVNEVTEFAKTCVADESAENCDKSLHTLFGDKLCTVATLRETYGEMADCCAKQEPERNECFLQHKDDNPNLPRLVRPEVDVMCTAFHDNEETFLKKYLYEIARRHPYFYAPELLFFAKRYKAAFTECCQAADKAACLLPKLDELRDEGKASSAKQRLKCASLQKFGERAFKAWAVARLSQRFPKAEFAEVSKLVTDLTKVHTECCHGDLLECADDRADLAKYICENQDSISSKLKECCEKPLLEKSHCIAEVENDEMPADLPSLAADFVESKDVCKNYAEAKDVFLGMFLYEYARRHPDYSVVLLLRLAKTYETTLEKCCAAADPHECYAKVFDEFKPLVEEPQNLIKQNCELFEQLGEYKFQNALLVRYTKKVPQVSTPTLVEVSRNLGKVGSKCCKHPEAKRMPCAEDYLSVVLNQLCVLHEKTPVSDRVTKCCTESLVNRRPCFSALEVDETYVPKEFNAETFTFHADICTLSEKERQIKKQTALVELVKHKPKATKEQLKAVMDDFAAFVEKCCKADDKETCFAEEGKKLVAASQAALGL
# Chain of adult human albumin (P02768 25-609): as above
molecule,measurement,setting,value
C[C@@H]1[C@H](O)[C@@H](C)/C=C/C=C/C=C/C=C/C=C/C=C/C=C/[C@H](O[C@@H]2O[C@H](C)[C@@H](O)[C@H](N)[C@@H]2O)C[C@@H]2O[C@](O)(C[C@@H](O)C[C@@H](O)[C@H](O)CC[C@@H](O)C[C@@H](O)CC(=O)O[C@H]1C)C[C@H](O)[C@H]2C(=O)O [Amphotericin B],Displacement or Interference,Albumin [1],199%
Cc1nnc(SCC2=C(C(=O)O)N3C(=O)[C@@H](NC(=O)Cn4cnnn4)[C@H]3SC2)s1 [Cefazolin sodium salt],Displacement or Interference,Albumin [1],524%
Cc1nnc(SCC2=C(C(=O)O)N3C(=O)[C@@H](NC(=O)Cn4cnnn4)[C@H]3SC2)s1 [Cefazolin],Bf larger in the UBCheck than Arrows,Albumin [2],~5 fold
CO/N=C(\C(=O)N[C@@H]1C(=O)N2C(C(=O)O)=C(COC(C)=O)CS[C@H]12)c1csc(N)n1 [Cefotaxime],Displacement or Interference,Albumin [1],157%
CC(C)(O/N=C(\C(=O)N[C@@H]1C(=O)N2C(C(=O)[O-])=C(C[n+]3ccccc3)CS[C@H]12)c1csc(N)n1)C(=O)O [Ceftazidime sodium salt],Displacement or Interference,Albumin [1],76%
NS(=O)(=O)c1cc2c(cc1Cl)N=CNS2(=O)=O [Chlorothiazide],Displacement or Interference,Albumin [1],1626%
NS(=O)(=O)c1cc(C(=O)O)c(NCc2ccco2)cc1Cl [Furosemide],Displacement or Interference,Albumin [1],820%
Cc1onc(-c2ccccc2)c1C(=O)N[C@@H]1C(=O)N2[C@@H]1SC(C)(C)[C@@H]2C(=O)O [Oxacillin],Displacement or Interference,Albumin [1],616%
CC(=O)S[C@@H]1CC2=CC(=O)CC[C@]2(C)[C@H]2CC[C@@]3(C)[C@@H](CC[C@@]34CCC(=O)O4)[C@H]12 [Spironolactone],Displacement or Interference,Albumin [1],−98%
C=CC1=C(C)/C(=C/c2[nH]c(Cc3[nH]c(/C=C4\NC(=O)C(C)=C4C=C)c(C)c3CCC(=O)O)c(CCC(=O)O)c2C)NC1=O [bilirubin],Kd,adult human albumin,~20 nM
ditaurobilirubin,Bf (assay saturates),"[3]; Arrows UA-2, samples diluted 52-fold, 4 mg/dl ditaurobilirubin",≥ 50 nM
same,increase of Bf from the initial 10 nM level,"[3]; UBCheck, 4 mg/dl ditaurobilirubin",20%
same,Bf,"[3]; UBCheck, 4 mg/dl ditaurobilirubin, neonatal serum spiked to Bf of approximately 10 nM",about 12 nM
same,Bf,"[3]; UBCheck, 20 mg/dl ditaurobilirubin",33 nM
hemoglobin,Bf concentration relative to zero hemoglobin,[4],unaffected
B1,700/819 ratio,[5],1%
same,intensity change (cv) of LICOR 800CW maleimide measured at 805 nm,[6],2.5%
B2,Qs (Rm/Ro),"[7]; degree to which the probe is quenched by bilirubin binding, effect of fluorophore position",0.21
same,Kd,"[7]; effect of fluorophore (cysteine) position, responder probe labeled with 700DX-maleimide",30 nM
